This data set in a line: Thermodynamic stability of crystalline forms. In kind it is physicochemical. The note with it: compared to Form 1.

`CCOC(=O)[C@@H]1CC2(CCN(c3cc(O[C@H](c4ccc(Cl)cc4-c4ccccc4)C(F)(F)F)nc(N)n3)CC2)CN1` [Form 3, (S)-ethyl 8-(2-amino-6-((R)-1-(5-chloro-[1,1′-biphenyl]-2-yl)-2,2,2-trifluoroethoxy)pyrimidin-4-yl)-2,8-diazaspiro[4.5]decane-3-carboxylate]: the thermodynamic stability entry is reported as “substantially greater thermodynamic stability compared to Form 1”.
